A short description of the series: Pharmacokinetics (PK) study, plasma exposure of PBA after oral dosing of PBA analogues. In kind it is in vivo, SD rats. As for the experimental part: Pharmacokinetics (PK) study was carried out to evaluate the plasma exposure of two PBA analogues (ATX-2022-018 and ATX-2022-034), when dosed orally (PO) at 22.5 mg/kg in 50% Propylene glycol. Dosing was done in overnight fasted SD rats (n=6). After oral (PO) administration blood was collected by serial bleeding at 8 different time points in heparinized tubes. Blood samples were centrifuged at 10,000 rpm for 5 min. at 4° C. to obtain the plasma, which were aspirated into separate labeled tubes and stored at −80° C. Extraction solvent was added to plasma (150 μL 0.1% acetic acid in water: 0.1% acetic acid Methanol, 20:80) was vortexed and shaken on shaker for 10 minutes, centrifuged at 10,000 rpm for 10 minutes at 4° C. Supernatant was used for LC-MS analysis. Parent drug generated that is PBA was monitored by LC-MS (API3200).
Details of the LC column and mobile phase used for the analysis is provided below: • Column: Gemini NX C18, 50 mm*4.6 mm*3.5μ • Mobile Phase: A: 0.1% Acetic in Water • B: 0.1% Acetic acid in Methanol • Flow rate: 0.600 mL/min, gradient program
Acetonitrile and plasma calibration curves were generated and percentage of drug recovery from plasma determined. Quantitative analysis was done by liquid chromatography tandem mass spectrometer (API3200 LC-MS/MS). Cmax, Tmax, AUC and t½ were calculated using Graph Pad PRISM version 5.04.

Setting [1] is: SD, rat, in vivo, po, 22.5 mg/kg.
The mark [2] stands for this setting: PBA monitored in plasma by LC-MS, overnight fasted SD rats, PO 22.5 mg/kg in 50% Propylene glycol.

From patent publication US20250382255A1, “ERYTHRITOL ESTER OF PHENYL BUTYRIC ACID” (AAYAM THERAPEUTICS LLC, priority 2022, published 2025) come the findings set out here.

Structures are written as SMILES. Read-outs that look alike come from different tables or passages of the source.

As for `O=C(CCCc1ccccc1)OC[C@H](OC(=O)CCCc1ccccc1)[C@@H](COC(=O)CCCc1ccccc1)OC(=O)CCCc1ccccc1` [ERYTHRITOL ANALOG OF PBA, (2R,3S)-butane-1,2,3,4-tetrayl tetrakis(4-phenylbutanoate)], under setting [1], the AUC is 104,814 nM · h, the “CHANGE of AUC (Increase)” value is “Increase 3-fold”, the “CHANGE of CL (Decrease)” value is reported as “Decrease 2.7-fold” and the “CHANGE of Cmax (Increase)” value is “Increase 4-fold”. Under setting [1], the “CHANGE of MRT (Increase)” value is recorded as “Increase 1.5-fold”, the “CHANGE of Vd (Decrease)” value is “Decrease 2.75-fold”, the CL was 225 mL/h and the highest level (Cmax) was 51.3 µM. Moreover, under setting [1], the MRT is 36 min, the Tmax came to 12 min and the Vd is 2,600 ml.

For `O=C(CCCc1ccccc1)OC[C@H](OC(=O)CCCc1ccccc1)[C@H](COC(=O)CCCc1ccccc1)OC(=O)CCCc1ccccc1` [THREITOL ANALOG OF PBA, (2S,3S)-butane-1,2,3,4-tetrayl-tetrakis(4-phenylbutanoate), reference compound], under setting [2], the AUC is 37,594 nM · h, the CL was found to be 600 mL/h, the MRT was 24 min and the Tmax turned out to be 18 min. For the same molecule, the Vd under setting [2] is reported as 7,161 ml. The Cmax (PBA monitored in plasma by LC-MS, overnight fasted SD rats, PO 22.5 mg/kg in 50% Propylene glycol, read-out: Cmax) was determined as 12.5 µM.

By Cmax is commonly meant the peak of the concentration-time curve. What is called MRT is a mean duration of stay, worked out from the concentration-time curve. In general, Tmax refers to the time at which the peak concentration occurs.
